pIC50: −log10 of the molar value.
These molecules were tested against T1, serotonin 5-HT6 receptors (Homo sapiens, UniProt P50406) (assay: [3H]LSD displacement from 5-HT6 receptors expressed in HeLa cell membranes). Conditions: not given.
T1 construct: expressed in transfected cells; host or cells: HeLa cells (membranes)
Type: binding
Procedure: Investigation of ligand activity of azaheterocyclic compounds of the general formula 1 to 5-HT6 receptor. A focused library, including 3537 azaheterocyclic compounds of the general formula 1, their geometric isomers and pharmaceutically acceptable salts were tested for ligand activity to 5-HT6 receptor. Some examples of the tested azaheterocyclic compounds of the general formula 1 are represented in Tables 1-3, including: pyrrolo[4,3-b]indoles 1.2, 1.3 (Table 1), γ-carbolines 1.5, 1.6, 1.7 (Table 2) and azepino[4,3-b]indoles 1.10, 1.12, 1.13 (Tables 3). Ligand activity was determined by the ability of azaheterocyclic compounds of the general formula 1 to displace concurrently tritium-labelled diethyl […] of lysergic acid ([^3H]LSD), specifically bound to serotonin 5-HT6 receptors, which are expressed in HeLa cells membranes [Monsma F J Jr, Shen Y, Ward R P, Hamblin M W and Sibley D R (1993). Cloning and expression of a novel serotonin receptor with high affinity for tricyclic psychotropic drugs. Mol. Pharmacol. 43:320-3271. Cells membranes were incubated with 1.5 nM [^3H]LSD for 2 hr at 37° C. without and in the presence of tested compounds of 10 mkM concentration in the medium comprising: 50 mM Tris-HCl, pH 7.4, 150 mM NaCl, 2 mM ascorbic acid and 0.001% of bovine serum albumin. Nonspecific binding of [^3H]LSD was determined in the presence of 5 mkM of serotonin (5-HT). After incubation membrane suspensions were filtered through glass microfiber filters GF/A (Millipor, USA) and the residual radioactivity was measured by scintillation counter Microbeta 1840 (PerkinElmer). Investigated compounds interacted effectively with 5-HT6 receptor.
Measurements were carried out as it is described in example 1, except that the tested compounds were taken in various concentrations and % of displacement of [^3H]LSD was plotted as a function of compound's concentration (FIG. 1), on the basis of which IC50 (concentration of halfmaximum blocking of [^3H]LSD binding) values characterizing the seeming affinity of substituted azaheterocyclic compounds of the general formula 1 to 5-HT6 receptor were calculated (Table 5).

T1 sequence (P50406 whole entry): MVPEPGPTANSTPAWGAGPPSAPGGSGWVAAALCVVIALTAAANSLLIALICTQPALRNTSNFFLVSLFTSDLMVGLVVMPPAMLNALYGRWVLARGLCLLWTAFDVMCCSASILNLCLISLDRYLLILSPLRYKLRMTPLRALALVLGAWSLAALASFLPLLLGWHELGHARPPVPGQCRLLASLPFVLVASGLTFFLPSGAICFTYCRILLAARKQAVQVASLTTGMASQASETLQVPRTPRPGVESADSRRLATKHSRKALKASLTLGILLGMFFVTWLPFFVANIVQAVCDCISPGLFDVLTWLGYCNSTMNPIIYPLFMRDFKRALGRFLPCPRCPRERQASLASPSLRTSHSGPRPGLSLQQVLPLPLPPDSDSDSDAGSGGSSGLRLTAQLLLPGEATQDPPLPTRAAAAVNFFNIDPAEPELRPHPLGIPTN

Structure (SMILES) | pIC50
Cc1ccc2c(c1)[C@@H]1CN(C)CCC[C@H]1N2CCc1cccnc1 [1.13(13)] | 6.10

Same assay, conditions: [3H]LSD displacement at various compound concentrations; HeLa cell membranes; read-out: IC50 (concentration of halfmaximum blocking of [3H]LSD binding), seeming affinity to 5-HT6 receptor

Structure (SMILES) | pIC50
Cc1ccc(CCn2c3c(c4cc(C)ccc42)CN(C)CCC3)nc1 [1.10(50)] | 5.90
Cc1ccc2c(c1)c1c(n2CCc2ccncc2)CCCN(C)C1 [1.10(51)] | 5.97
Cc1ccc2c(c1)c1c(n2CCc2cccnc2)CCCN(C)C1 [1.10(53)] | 6.13
Cc1ccc2c(c1)c1c(n2CCc2ccc(C)nc2)CCN(C)C1 [1.5(20)] | 7.13

Same assay, conditions: displacement of 1.5 nM [3H]LSD; tested compounds at 10 mkM; HeLa cell membranes; 2 hr at 37° C.

Structure (SMILES) | Interaction efficiency of compounds of the general formula 1 with 5-HT6 receptor, %
Cc1ccc(CCn2c3c(c4cc(C)ccc42)CN(C)CCC3)nc1 [1.10(50)] | 84%
Cc1ccc2c(c1)c1c(n2CCc2ccncc2)CCCN(C)C1 [1.10(51)] | 84%
Cc1ccc2c(c1)[C@@H]1CN(C)CCC[C@H]1N2CCc1cccnc1 [1.13(13)] | 93%
Cc1ccc2c(c1)c1c(n2CCc2cccnc2)CCCN(C)C1 [1.10(53)] | 79%
Cc1ccc2c(c1)c1c(n2CCc2ccc(C)nc2)CCN(C)C1 [1.5(20)] | 100%
Cc1ccc2c(c1)[C@@H]1CNCCC[C@@H]1N2CCc1cccnc1 [1.12(12)] | 84%
Cc1ccc2c(c1)C1CN(C)CCC1N2S(=O)(=O)c1nc2cc(C)nc(C)n2n1 (centres unmarked) [1.6(22)] | 82%
Cc1ccc2c(c1)[C@@H]1CN(C)CCC[C@H]1N2CCc1ccc(C)nc1 [1.13(3)] | 93%
Cc1ccc2c(c1)c1c(n2CCc2ccccn2)CCCN(C)C1 [1.10(49)] | 88%
CN1CCc2c(c3ccccc3n2Cc2ccccc2)C1 [1.5(18)] | 71%
Cc1ccc2c(c1)[C@@H]1CN(C)CC[C@@H]1N2C(=O)Nc1cccc(C(F)(F)F)c1 [1.7(1)] | 47%
Cc1ccc2c(c1)[C@@H]1CNCCC[C@@H]1N2CCc1ccc(C)nc1 [1.12(13)] | 76%
Cc1ccc2c(c1)[C@@H]1CN(C)C[C@@H]1N2CCc1ccc(C)nc1 [1.3(9)] | 27%
Cc1ccc(S(=O)(=O)n2c3c(c4cc(C)ccc42)CN(C)C3)cc1 [1.2(39)] | 77%
Cc1ccc2c(c1)C1CN(C)CCC1N2C(=O)c1ccccc1 (centres unmarked) [1.6(6)] | 52%

Source: US20110046368A1, “LIGANDS OF 5-HT6 RECEPTORS, A PHARMACEUTICAL COMPOSITION, METHOD FOR THE PRODUCTION AND USE THEREOF” (priority 2006, published 2011)
